Patent US7968733B2, “Pyrrolidine analogue for preventing neurogenic pain and method for production thereof” (priority 2006, dated 2011)

How the values were obtained:
[1] = tested on: acromelic acid-induced allodynia; assay: Evaluation of allodynia-inhibitory activity (intrathecal co-administration with acromelic acid); format: in vivo, ddY-mouse; conditions: for allodynia-inhibitory activity: intrathecal, 5 μl solution with 1×10^−15 gram of acromelic acid plus pyrrolidine derivative, ddY-mouse male, allodynia scored 0 to 2 every 5 minutes for 50 minutes, percent of control, FIGS. 1-3; for dose suppressing allodynia induction with equal potency, relative to the compounds of Comparative Examples 5 and 6: fraction of the doses of Comparative Examples 5 and 6, intrathecal with acromelic acid, ddY-mouse, FIG. 3
Protocol: In the evaluation, according to the method of Hylden & Wilcox (Hylden, J. L. K. and Wilcox, G. L., Intrathecal morphine in mice: a new technique, Eur. J. Pharmacol, 67 (1980) 313-316.), 5 μl of a solution containing 1×10^−15 gram of acromelic acid and a different dose of pyrrolidine derivative was administrated to ddY-mouse (male, weight 22±2 g) under an unanesthetized condition. One experimental group consisted of 6 mice, and a solution containing 1×10^−15 gram of acromelic acid (5 μl ) was administrated in control groups. After the compound was intrathecally administered, allodynia was assessed once every 5 minutes for 50 minutes by scoring the response in rank order from 0 to 2, and expressed as a percent of the values in control groups, similarly to the method of Yaksh & Harty et al. (Yaksh, T. L. and Harty, G. J., Pharmacology of the allodynia in rats evoked by high dose intrathecal morphine, J. Pharmacol. Exp. Ther., 244 (1988) 501-507.). Allodynic response was ranked as follows: 0, no response; 1, mild squeaking with attempts to move away from the stroking probe; 2, vigorous squeaking evoked by the stroking probe, biting at the probe or strong efforts to escape.

[2] = tested on: allodynia; conditions: intrathecal administration in mice; Non-patent documents 1 and 4; cited from earlier work

Molecule	allodynia-inhibitory activity [1]	dose suppressing allodynia induction with equal potency, relative to the compounds of Comparative Examples 5 and 6 [1]	allodynia-inducing activity [2]
O=C(O)C[C@@H]1[C@@H](C(=O)O)NC[C@H]1Oc1ccc(C(=O)O)cc1 [Example 1, (2S,3R,4S)-3-carboxymethyl-4-(4-carboxyphenoxy)-pyrrolidine-2-carboxylic acid]	strong allodynia-inhibitory activity	–	–
O=C(O)C[C@@H]1[C@@H](C(=O)O)NC[C@H]1Oc1ccccc1C(=O)O [Example 5, (2S,3R,4S)-3-(carboxymethyl)-4-(2-carboxyphenoxy)-pyrrolidine-2-carboxylate]	strong allodynia-inhibitory activity	–	–
Cc1ccc(O[C@@H]2CN[C@H](C(=O)O)[C@H]2CC(=O)O)c(C(=O)O)c1 [Example 8, (2S,3R,4S)-3-carboxymethyl-4-(2-carboxy-4-methyl-phenoxy)pyrrolidine-2-carboxylate]	strong allodynia-inhibitory activity	approximately one-hundredth	–
O=C(O)c1ccc(O[C@@H]2CN[C@H](C(=O)O)C2)cc1 [Example 9, (2S,4S)-4-(4-carboxyphenoxy)pyrrolidine-2-carboxylate]	strong allodynia-inhibitory activity	–	–
COc1ccc(S[C@H]2CN[C@H](C(=O)O)[C@H]2CC(=O)O)cc1 [Example 13, (2S,3R,4R)-3-(carboxymethyl)-4-(4-methoxyphenylthio)-pyrrolidine-2-carboxylate]	strong allodynia-inhibitory activity	–	–
Cc1ccc(S[C@H]2CN[C@H](C(=O)O)[C@H]2CC(=O)O)cc1 [Example 14, (2S,3R,4R)-3-(carboxymethyl)-4-(4-methylphenylthio)-pyrrolidine-2-carboxylate]	strong allodynia-inhibitory activity	approximately one-hundredth	–
O=C(O)C[C@H]1[C@@H](Sc2ccccc2)CN[C@@H]1C(=O)O [Example 18, (2S,3R,4R)-3-carboxy-methyl-4-phenylthiopyrrolidine-2-carboxylate]	strong allodynia-inhibitory activity	–	–
Cc1ccc(S[C@H]2CN[C@H](C(=O)O)C2)cc1 [Example 19, (2S,4R)-4-(4-methylphenylthio)pyrrolidine-2-carboxylate]	strong allodynia-inhibitory activity	approximately one-hundredth	–
[N-]=[N+]=Nc1ccc(O[C@H]2CN[C@H](C(=O)O)[C@H]2CC(=O)O)c(I)c1 [proline analogue (a)]	–	–	the same degree of allodynia-inducing activity as that of acromelic acids
acromelic acids	–	–	induce severe allodynia
